In ChEMBL document CHEMBL4613209, “Quinolone hybrids and their anti-cancer activities: An overview” (Eur J Med Chem, 2019) one finds IC50 data, which are given here for 17 molecules.

The first experiment deals with L1210. Put plainly: Antiproliferative activity against mouse L1210 cells by MTT assay.
Details: not given
Format: functional, cell-based.
The molecule `Nc1cccc(C2=NN=C3C(F)=Cc4c(n(C5CC5)cc(C(=O)O)c4=O)N3C2)c1` registered an IC50 of 1 to 48.6 µM.

In another experiment the test system is SMMC-7721. The experiment is described as follows: Antiproliferative activity against human SMMC7721 cells by MTT assay.
Details: not given
The experiment is classed as functional, cell-based. Background: Formazan colour is commonly taken as a measure of viable cells.
`Nc1cccc(C2=NN=C3C(F)=Cc4c(n(C5CC5)cc(C(=O)O)c4=O)N3C2)c1` gave an IC50 of 1 to 48.6 µM.

For another experiment, the system named is A549. Put plainly: Antiproliferative activity against human A549 cells after 72 hrs by MTT assay. Format: functional, cell-based. The conditions noted are these: A549, 72 h.
As for `CCn1cc(C(=O)O)c(=O)c2cc(F)c(N3CCN(C(=N)NS(=O)(=O)c4ccccc4Cl)CC3)cc21`, the IC50 fell in the range of 32 to 79 nM.
For the molecule `CCn1cc(C(=O)O)c(=O)c2cc(F)c(N3CCN(C(=N)NS(=O)(=O)c4cccc(Cl)c4)CC3)cc21`, the IC50 was in the range of 32 to 161 nM.
`CCn1cc(C(=O)O)c(=O)c2cc(F)c(N3CCN(C(=N)NS(=O)(=O)c4ccc(C)cc4)CC3)cc21`: the IC50 lay within 32 to 161 nM.
Consider `Cc1ccc(S(=O)(=O)NC(=N)N2CCN(c3cc4c(cc3F)c(=O)c(C(=O)O)cn4C3CC3)CC2)cc1`, for which the IC50 fell in the range of 32 to 161 nM.
In turn, `N=C(NS(=O)(=O)c1ccccc1)N1CCN(c2cc3c(cc2F)c(=O)c(C(=O)O)cn3C2CC2)CC1` came in with an IC50 of 32 to 161 nM.
As to `CCn1cc(C(=O)O)c(=O)c2cc(F)c(N3CCN(C(=N)NS(=O)(=O)c4ccccc4)CC3)cc21`, the IC50 lay within 32 to 161 nM.
For the molecule `N=C(NS(=O)(=O)c1ccccc1Cl)N1CCN(c2cc3c(cc2F)c(=O)c(C(=O)O)cn3C2CC2)CC1`, the IC50 lay in the range of 32 to 79 nM.
Turning to `N=C(NS(=O)(=O)c1ccccc1C(F)(F)F)N1CCN(c2cc3c(cc2F)c(=O)c(C(=O)O)cn3C2CC2)CC1`, the IC50 fell in the range of 32 to 161 nM.
`N=C(NS(=O)(=O)c1ccc(C(F)(F)F)cc1)N1CCN(c2cc3c(cc2F)c(=O)c(C(=O)O)cn3C2CC2)CC1` gave a half-maximal inhibitory concentration (IC50) of 32 to 161 nM.
On the same count and under the same terms, the same measure for `CCn1cc(C(=O)O)c(=O)c2cc(F)c(N3CCN(C(=N)NS(=O)(=O)c4ccc(C(F)(F)F)cc4)CC3)cc21`: 32 to 161 nM; for `N=C(NS(=O)(=O)c1ccc(Cl)cc1)N1CCN(c2cc3c(cc2F)c(=O)c(C(=O)O)cn3C2CC2)CC1`: 32 to 161 nM; for `CCn1cc(C(=O)O)c(=O)c2cc(F)c(N3CCN(C(=N)NS(=O)(=O)c4ccccc4C(F)(F)F)CC3)cc21`: 32 to 161 nM.
`CCn1cc(C(=O)O)c(=O)c2cc(F)c(N3CCN(C(=N)NS(=O)(=O)c4ccc(Cl)cc4)CC3)cc21`: the IC50 is 32 to 161 nM.

The test system of the next experiment is CAPAN-1. Put plainly: Cytotoxicity against human Capan1 cells assessed as reduction in cell viability. Format: functional, cell-based.
Details: not given
Turning to `CN1CCN(c2cc3c(cc2F)c(=O)c(-c2nc4s/c(=C\c5ccc(Cl)cc5)c(=O)n4n2)cn3C2CC2)CC1`, the half-maximal inhibitory concentration (IC50) is greater than 10 µM.
As to `COC(=O)c1cccc(/C=c2\sc3nc(-c4cn(C5CC5)c5cc(N6CCN(C)CC6)c(F)cc5c4=O)nn3c2=O)c1`, the IC50 was 0.3 to 8.4 µM.
As to `COc1ccccc1/C=c1\sc2nc(-c3cn(C4CC4)c4cc(N5CCN(C)CC5)c(F)cc4c3=O)nn2c1=O`, the IC50 was greater than 10 µM.

The subject of another experiment is HL-60. The experiment is described as follows: Antiproliferative activity against human HL60 cells after 72 hrs by MTT assay. Format: functional, cell-based. The conditions noted are these: HL-60, 72 h.
Molecule `CCn1cc(C(=O)O)c(=O)c2cc(F)c(N3CCN(C(=N)NS(=O)(=O)c4ccccc4Cl)CC3)cc21` displayed an IC50 of 32 to 79 nM.
Molecule `CCn1cc(C(=O)O)c(=O)c2cc(F)c(N3CCN(C(=N)NS(=O)(=O)c4cccc(Cl)c4)CC3)cc21` had an IC50 of 32 to 161 nM.
`CCn1cc(C(=O)O)c(=O)c2cc(F)c(N3CCN(C(=N)NS(=O)(=O)c4ccc(C)cc4)CC3)cc21` registered an IC50 of 32 to 161 nM.
`Cc1ccc(S(=O)(=O)NC(=N)N2CCN(c3cc4c(cc3F)c(=O)c(C(=O)O)cn4C3CC3)CC2)cc1` returned an IC50 of 32 to 161 nM.
In the case of `N=C(NS(=O)(=O)c1ccccc1)N1CCN(c2cc3c(cc2F)c(=O)c(C(=O)O)cn3C2CC2)CC1`, the IC50 is 32 to 161 nM.
Same read-out and setting: the same measure for `CCn1cc(C(=O)O)c(=O)c2cc(F)c(N3CCN(C(=N)NS(=O)(=O)c4ccccc4)CC3)cc21`: 32 to 161 nM.
In the case of `N=C(NS(=O)(=O)c1ccccc1Cl)N1CCN(c2cc3c(cc2F)c(=O)c(C(=O)O)cn3C2CC2)CC1`, the IC50 was in the range of 32 to 79 nM.
As to `N=C(NS(=O)(=O)c1ccccc1C(F)(F)F)N1CCN(c2cc3c(cc2F)c(=O)c(C(=O)O)cn3C2CC2)CC1`, the IC50 lay in the range of 32 to 161 nM.
In turn, `N=C(NS(=O)(=O)c1ccc(C(F)(F)F)cc1)N1CCN(c2cc3c(cc2F)c(=O)c(C(=O)O)cn3C2CC2)CC1` displayed a half-maximal inhibitory concentration (IC50) of 32 to 161 nM.
As to `CCn1cc(C(=O)O)c(=O)c2cc(F)c(N3CCN(C(=N)NS(=O)(=O)c4ccc(C(F)(F)F)cc4)CC3)cc21`, the IC50 fell in the range of 32 to 161 nM.
The same measure, in the same setting: the value for `N=C(NS(=O)(=O)c1ccc(Cl)cc1)N1CCN(c2cc3c(cc2F)c(=O)c(C(=O)O)cn3C2CC2)CC1` was 32 to 161 nM; that for `CCn1cc(C(=O)O)c(=O)c2cc(F)c(N3CCN(C(=N)NS(=O)(=O)c4ccccc4C(F)(F)F)CC3)cc21` was 32 to 161 nM; that for `CCn1cc(C(=O)O)c(=O)c2cc(F)c(N3CCN(C(=N)NS(=O)(=O)c4ccc(Cl)cc4)CC3)cc21` was 32 to 161 nM.

In a further experiment the test system is Hep 3B2. Put plainly: Cytotoxicity against human Hep3B cells assessed as reduction in cell viability.
Details: not given
The experiment is classed as functional, cell-based.
With `CN1CCN(c2cc3c(cc2F)c(=O)c(-c2nc4s/c(=C\c5ccc(Cl)cc5)c(=O)n4n2)cn3C2CC2)CC1`, the IC50 is greater than 10 µM.
With `COC(=O)c1cccc(/C=c2\sc3nc(-c4cn(C5CC5)c5cc(N6CCN(C)CC6)c(F)cc5c4=O)nn3c2=O)c1`, the IC50 lay in the range of 0.3 to 8.4 µM.
For `COc1ccccc1/C=c1\sc2nc(-c3cn(C4CC4)c4cc(N5CCN(C)CC5)c(F)cc4c3=O)nn2c1=O`, the IC50 was greater than 10 µM.

The test system of another experiment is HL-60. Put plainly: Antiproliferative activity against human HL60 cells by MTT assay. The experiment is classed as functional, cell-based.
Details: not given
`Nc1cccc(C2=NN=C3C(F)=Cc4c(n(C5CC5)cc(C(=O)O)c4=O)N3C2)c1`: the IC50 lay in the range of 1 to 48.6 µM.

Another experiment concerns HL-60. The experiment is described as follows: Cytotoxicity against human HL60 cells assessed as reduction in cell viability.
Details: not given
Format: functional, cell-based.
On to `CN1CCN(c2cc3c(cc2F)c(=O)c(-c2nc4s/c(=C\c5ccc(Cl)cc5)c(=O)n4n2)cn3C2CC2)CC1`, for which the IC50 was greater than 10 µM.
With `COC(=O)c1cccc(/C=c2\sc3nc(-c4cn(C5CC5)c5cc(N6CCN(C)CC6)c(F)cc5c4=O)nn3c2=O)c1`, the IC50 lay in the range of 0.3 to 8.4 µM.
As to `COc1ccccc1/C=c1\sc2nc(-c3cn(C4CC4)c4cc(N5CCN(C)CC5)c(F)cc4c3=O)nn2c1=O`, the IC50 is greater than 10 µM.

As usually defined, the IC50 is the midpoint of a concentration-inhibition curve.
